Measurements: US20190048016A1, “SUBSTITUTED BRIDGED UREA ANALOGS AS SIRTUIN MODULATORS” (GlaxoSmithKline Intellectual Property(No.2)Limited, priority 2014, published 2019)
Structures can show the parent of a compound that is named as a salt.

Target: T1, SIRT1 (Homo sapiens, UniProt Q96EB6)
T1 sequence (Q96EB6 1-747): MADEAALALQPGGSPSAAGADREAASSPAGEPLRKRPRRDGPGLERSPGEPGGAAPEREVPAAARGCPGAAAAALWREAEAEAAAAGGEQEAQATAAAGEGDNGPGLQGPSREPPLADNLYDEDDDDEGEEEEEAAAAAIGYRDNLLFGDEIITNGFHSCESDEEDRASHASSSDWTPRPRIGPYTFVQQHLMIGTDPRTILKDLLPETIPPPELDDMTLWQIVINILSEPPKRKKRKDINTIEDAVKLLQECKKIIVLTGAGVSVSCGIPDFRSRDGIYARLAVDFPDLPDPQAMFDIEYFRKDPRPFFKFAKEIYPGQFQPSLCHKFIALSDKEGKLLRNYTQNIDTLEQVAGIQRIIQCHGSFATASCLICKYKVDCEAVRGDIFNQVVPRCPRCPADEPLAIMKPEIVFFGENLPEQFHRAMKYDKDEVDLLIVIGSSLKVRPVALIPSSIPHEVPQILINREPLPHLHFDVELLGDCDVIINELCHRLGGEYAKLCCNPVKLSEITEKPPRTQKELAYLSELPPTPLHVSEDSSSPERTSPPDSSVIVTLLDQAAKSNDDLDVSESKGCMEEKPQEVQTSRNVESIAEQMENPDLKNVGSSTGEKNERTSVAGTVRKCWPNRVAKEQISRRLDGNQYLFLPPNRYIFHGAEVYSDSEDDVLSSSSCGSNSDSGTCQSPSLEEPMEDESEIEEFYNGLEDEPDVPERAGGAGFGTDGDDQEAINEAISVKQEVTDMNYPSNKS
Assay: Trp mass spectrometry assay of SIRT1 activation (deacetylation of Ac-R-H-K-K(Ac)-W-NH2 peptide, OAADPR formation)
Assay type: biochemical
Details: Trp peptide 0.5 μM, 120 μM βNAD+, 10 nM SIRT1, 25 min, 25° C.; for Emax: 25 min, read-out: TRP MAX RESP (percent maximum fold activation relative to control = 100%)
Description: Mass spectrometry based assays were used to identify modulators of SIRT1 activity. The TAMRA based assay utilized a peptide having 20 amino acid residues as follows: Ac-EE-K(biotin)-[…](Ac)NleSTEG-K(5TMR)-EE-NH2 (SEQ ID NO: 1), wherein K(Ac) is an acetylated lysine residue and Nle is a norleucine. The peptide was labeled with the fluorophore 5TMR (excitation 540 nm/emission 580 nm) at the C-terminus. The sequence of the peptide substrate was based on p53 with several modifications. In addition, the methionine residue naturally present in the sequence was replaced with the norleucine because the methionine may be susceptible to oxidation during synthesis and purification. The Trp based assay utilized a peptide having an amino acid residues as follows: Ac-R-H-K-K(Ac)-W-NH2 (SEQ ID NO: 2).
The Trp mass spectrometry assay was conducted as follows. 0.5 μM peptide substrate and 120 μM βNAD^+ were incubated with 10 nM SIRT1 for 25 minutes at 25° C. in a reaction buffer (50 mM HEPES pH 7.5, […], 1 mM DTT, 0.05% BSA). The SIRT1 protein was obtained by cloning the SirT1 gene into a T7-promoter containing vector, which was then expressed in BL21(DE3) bacterial cells and purified as described in further detail below. Test compound was added at varying concentrations to this reaction mixture and the resulting reactions were monitored. After the 25 minute incubation with SIRT1, 10 μL of 10% formic acid was added to stop the reaction. The resulting reactions were sealed and frozen for later mass spec analysis. The relative SIRT1 activity was then determined by measuring the amount of O-acetyl-ADP-ribose (OAADPR) formed (or, alternatively, the amount of deacetylated Trp peptide generated) by the NAD-dependent sirtuin deacetylation reaction in the presence of varying concentrations of the test compound versus control reactions lacking the test compound. The degree to which the test agent activated deacetylation by SIRT1 was expressed as EC1.5 (i.e., the concentration of compound required to increase SIRT1 activity by 50% over the control lacking test compound), and Percent Maximum Activation (i.e., the maximum activity relative to control (100%) obtained for the test compound).
A control for inhibition of sirtuin activity was conducted by adding 1 μL of 500 mM nicotinamide as a negative control at the start of the reaction (e.g., permits determination of maximum sirtuin inhibition). A control for activation of sirtuin activity was conducted using 10 nM of sirtuin protein, with 1 μL of DMSO in place of compound, to determine the amount of deacetylation of the substrate at a given time point within the linear range of the assay. This time point was the same as that used for test compounds and, within the linear range, the endpoint represents a change in velocity.
For the above assay, SIRT1 protein was expressed and purified as follows. The SirT1 gene was cloned into a T7-promoter containing vector and transformed into BL21(DE3). The protein was expressed by induction with 1 mM IPTG as an N-terminal His-tag fusion protein at 18° C. overnight and harvested at 30,000×g. Cells were lysed with lysozyme in lysis buffer (50 mM Tris-HCl, 2 mM Tris[2-carboxyethyl] phosphine (TCEP), 10 μM ZnCl2, 200 mM NaCl) and further treated with sonication for 10 min for complete lysis. The protein was purified over a Ni-NTA column (Amersham) and fractions containing pure protein were pooled, concentrated and run over a sizing column (Sephadex S200 26/60 global). The peak containing soluble protein was collected and run on an Ion-exchange column (MonoQ). Gradient elution (200 mM-500 mM NaCl) yielded pure protein. This protein was concentrated and dialyzed against dialysis buffer (20 mM Tris-HCl, 2 mM TCEP) overnight. The protein was aliquoted and frozen at −80° C. until further use.
Sirtuin-modulating compounds of Formula (I) that activated SIRT1 were identified using the assay described above and are shown below in Table 1. […]

SMILES | Emax [%] | TRP Activity (EC1.5, concentration of compound required to increase SIRT1 activity by 50% over control) | TRP Activity (EC1.5, concentration of compound required to increase SIRT1 activity by 50% over control) (hydrochloride)
C[C@@H](NC(=O)c1ccc2c(n1)N(C(=O)Nc1ccc(OC[C@H](O)CO)nn1)[C@H]1CCCN2C1)C(F)(F)F [Example 55, (9S)-N10-(6-((R)-2,3-dihydroxypropoxy)pyridazin-3-yl)-N2-((R)-1,1,1-trifluoropropan-2-yl)-8,9-dihydro-6H-5,9-methanopyrido[2,3-b][1,4]diazocine-2,10(7H)-dicarboxamide] | ≥ 150 | – | –
Cc1cc(-c2ccc3c(n2)N(C(=O)Nc2cnccn2)[C@H]2CCCN3C2)ccn1 [Example 13, (9S)-2-(2-methylpyridin-4-yl)-N-(pyrazin-2-yl)-8,9-dihydro-6H-5,9-methanopyrido[2,3-b] [1,4] diazocine-10(7H)-carboxamide] | ≥ 150 | A (EC1.5<1 μM) | –
O=C(Nc1ccccn1)N1c2nc(N3CCCC(C(F)(F)F)C3)ccc2N2CCC[C@H]1C2 (single isomer, unassigned) [Example 11] | ≥ 150 | A (EC1.5<1 μM) | –
Cc1ccc2c(NC(=O)N3c4nc(C(=O)NC5CC5)ccc4N4CCC[C@H]3C4)n[nH]c2n1 [Example 42, (9S)-N2-cyclopropyl-N10-(6-methyl-1H-pyrazolo[3,4-b]pyridin-3-yl)-8,9-dihydro-6H-5,9-methanopyrido[2,3-b][1,4]diazocine-2,10(7H)-dicarboxamide] | ≥ 150 | A (EC1.5<1 μM) | –
Cc1cc(-c2ccc3c(n2)N(C(=O)Nc2nc(C)c(C)s2)[C@H]2CCCN3C2)ccn1 [Example 19, (9S)-N-(4,5-dimethylthiazol-2-yl)-2-(2-methylpyridin-4-yl)-8,9-dihydro-6H-5,9-methanopyrido[2,3-b][1,4]diazocine-10(7H)-carboxamide] | ≥ 150 | A (EC1.5<1 μM) | –
Cc1ccc2c(NC(=O)N3c4nc(C(=O)NCC(F)(F)F)ccc4N4CCC[C@H]3C4)n[nH]c2n1 [Example 41, (9S)-N10-(6-methyl-1H-pyrazolo[3,4-b]pyridin-3-yl)-N2-(2,2,2-trifluoroethyl)-8,9-dihydro-6H-5,9-methanopyrido[2,3-b][1,4]diazocine-2,10(7H)-dicarboxamide] | ≥ 150 | A (EC1.5<1 μM) | –
O=C(Nc1ccccn1)N1c2nc(N3CCC[C@H]3C(F)(F)F)ccc2N2CCC[C@H]1C2 [Example 1, (9S)-N-(pyridin-2-yl)-2-((S)-2-(trifluoromethyl)pyrrolidin-1-yl)-8,9-dihydro-6H-5,9-methanopyrido[2,3-b][1,4]diazocine-10(7H)-carboxamide] | ≥ 150 | B (EC1.5 1-25 μM) | –
O=C(Nc1cccnc1)N1c2nc(N3CCCC(C(F)(F)F)C3)ccc2N2CCC[C@H]1C2 (single isomer, unassigned) [Example 28] | – | A (EC1.5<1 μM) | –
O=C(NC1CC1(F)F)c1ccc2c(n1)N(C(=O)Nc1cc(OC[C@H](O)CO)ccn1)[C@H]1CCCN2C1 (single isomer, unassigned) [Example 50] | ≥ 150 | A (EC1.5<1 μM) | –
O=C(Nc1ncccn1)N1c2nc(N3CCCC(C(F)(F)F)C3)ccc2N2CCC[C@H]1C2 (single isomer, unassigned) [Example 18] | ≥ 150 | A (EC1.5<1 μM) | –
O=C(Nc1cnccn1)c1cc2c(nc1N1CCCC(C(F)(F)F)C1)N[C@H]1CCCN2C1 (single isomer, unassigned) [Example 59] | ≤ 150 | – | –
O=C(Nc1cnc(OC[C@@H](O)CO)nc1)N1c2nc(-c3cccc(C(F)(F)F)c3)c(Cl)cc2N2CCC[C@H]1C2 [Example 72, (9S)-3-chloro-N-(2-((S)-2,3-dihydroxypropoxy)pyrimidin-5-yl)-2-(3-(trifluoromethyl)phenyl)-8,9-dihydro-6H-5,9-methanopyrido[2,3-b][1,4]diazocine-10(7H)-carboxamide] | ≥ 150 | A (EC1.5<1 μM) | –
O=C(Nc1ccccn1)N1c2nc(N3CCC(C(F)(F)F)C3)ccc2N2CCC[C@H]1C2 (single isomer, unassigned) [Example 31, hydrochloride] | – | – | A (EC1.5<1 μM)
O=C(NC1CC1)c1nc2c(cc1Cl)N1CCC[C@@H](C1)N2C(=O)Nc1ccccn1 [Example 33, (9S)-3-chloro-N2-cyclopropyl-N10-(pyridin-2-yl)-8,9-dihydro-6H-5,9-methanopyrido[2,3-b][1,4]diazocine-2,10(7H)-dicarboxamide] | ≥ 150 | B (EC1.5 1-25 μM) | –
O=C(NC1CC1)N1c2nc(-c3cccc(C(F)(F)F)c3)c(Cl)cc2N2CCC[C@H]1C2 [Example 71, (9S)-3-chloro-N-cyclopropyl-2-(3-(trifluoromethyl)phenyl)-8,9-dihydro-6H-5,9-methanopyrido[2,3-b][1,4]diazocine-10(7H)-carboxamide] | ≥ 150 | A (EC1.5<1 μM) | –
O=C(Nc1cccc(OC[C@@H](O)CO)n1)N1c2nc(-c3cccc(C(F)(F)F)c3)c(Cl)cc2N2CCC[C@H]1C2 [Example 64, (9S)-3-chloro-N-(6-((S)-2,3-dihydroxypropoxy)pyridin-2-yl)-2-(3-(trifluoromethyl)phenyl)-8,9-dihydro-6H-5,9-methanopyrido[2,3-b][1,4]diazocine-10(7H)-carboxamide] | ≥ 150 | A (EC1.5<1 μM) | –
O=C(NCC(F)(F)F)c1nc2c(cc1Cl)N1CCC[C@@H](C1)N2C(=O)Nc1ccccn1 [Example 38, (9S)-3-chloro-N10-(pyridin-2-yl)-N2-(2,2,2-trifluoroethyl)-8,9-dihydro-6H-5,9-methanopyrido[2,3-b][1,4]diazocine-2,10(7H)-dicarboxamide] | ≥ 150 | A (EC1.5<1 μM) | –
